Source: patent US5079260A, “Method for treating inflammation and compounds and compositions suitable for use therein” (Nova Pharmaceutical Corporation, priority 1990, dated 1992)

Key:
[1] = system: Ear Edema Caused by Tetradecanoylphorbolacetate; assay: Inhibition of Ear Edema Caused by Tetradecanoylphorbolacetate (I), Table 1; assay type: in vivo, CF-1 Mice; conditions: i.p., 100 mg/kg, 30 min before irritant; ear thickness at 3 h
From the text: Such inflammatory agents typically include tetradecanoylphorbolacetate, arachidonic acid, xylene, capsaicin, oxazolone, carrageenan and the like. The reverse passive Arthus test offers another measure of the compound's utility in preventing an inflammatory response (Chang et al, Eur. J. Pharm. 69:155-164 (1981)). Test compounds are typically administered intraperitoneally or topically. For intraperitoneal administration, the test compound can be given in dimethyl sulfoxide or in 0.5% methylcellulose 30 minutes prior to administration of the irritant. For topical administration, the test compound can be dissolved in, for example, acetone, ethanol or dimethyl sulfoxide and applied about 15 minutes prior to application of the irritant. Results can be expressed as the percent decrease in swelling in the compound-treated animals as compared to control animals that receive only the irritant.
Inhibition of Ear Edema Caused by Tetradecanoylphorbolacetate (I)
CF-1 Mice, 25-30 g body weight, six animals per group, were used. Test compounds (compounds of Formula I where X is oxygen, R3, R4, A and B are hydrogen and Q is as indicated in Table 1) were administered intraperitoneally (100 mg/kg) or topically as follows. For intraperitoneal administration, the test compound was dissolved in dimethyl sulfoxide or 0.5% methylcellulose and 100 μl was injected 30 minutes prior to irritant (100 mg/kg, i.p.). For topical administration, the test compound was dissolved in either acetone, ethanol or dimethyl sulfoxide and 5 μl (100 μg) applied to the upper surface (1 cm^2) of the ear and an additional 5 μl (100 μg) applied to the lower surface (1 cm^2) of the ear fifteen minutes prior to application of the irritant. A solution of the irritant, tetradecanoylphorbolacetate, 200 μg/ml, was added to the surface of the ear, 5 μl added to the upper surface and 5 μl to the lower surface. After three hours, the thickness of the ear was measured to 0.01 mm by a micrometer with loose drag positioned at the lateral-most edge of the mid-point of the pinna. Data were calculated as the inhibition by the test compound of increased ear thickness compared to control animals receiving only the irritant.

[2] = system: Ear Edema Caused By Tetradecanoylphorbol Acetate; assay: Inhibition of Ear Edema Caused by Tetradecanoylphorbol Acetate (II), Table 7; assay type: in vivo, CF-1 Mice; conditions: i.p., 3 h
Description: Inhibition of Ear Edema Caused by Tetradecanoylphorbol Acetate (II)
CF-1 Mice, 25-30 g body weight, six animals per group were used. Test compounds were administered intraperitoneally or topically as follows. For intraperitoneal administration, the test compound was dissolved in dimethyl sulfoxide or 0.5% methylcellulose and 100 microliters was injected 30 minutes prior to irritant (100 mg/kg, i.p.). […] A solution of the irritant, tetradecanoylphorbol acetate, 200 μg/mL, was added to the surface of the ear, 5 μL to the upper surface and 5 μL to the lower surface. After three hours, the thickness of the ear was measured to 0.01 mm by a micrometer with loose drag, positioned at the lateral-most edge of the mid-point of the pinna. Data were calculated as the inhibition of increased ear thickness compared to control animals receiving only the irritant.

[3] = system: Ear Edema Caused by Arachidonic Acid; assay: Inhibition of Ear Edema Caused by Arachidonic Acid (II), Table 8; assay type: in vivo, CF-1 mice; conditions: i.p., sixty minutes
Description: Inhibition of Ear Edema Caused by Arachidonic Acid (II)
CF-1 mice, 25-30 g body weight, six animals per group, were used. The requisite amount of the test compound was dissolved is dimethyl sulfoxide or 0.5% methylcellulose and 100 μL of the solution was injected intraperitoneally 30 minutes prior to the administration of 100 mg/kg of arachidponic acid. A solution of this irritant, b 100 mg/mL in ethanol, was applied to the surface of the ear, 5 μL to the upper surface and 5 μL to the lower surface. After sixty minutes, the thickness of the ear was measured to 0.01 mm by a micrometer with the loose drag positioned at the lateral-most edge of the mid-point of the pinna. Data were calculated as the percent inhibityion by the test compound of increased ear thickness compared to control animals recieveing only the irritant.

[4] = system: Ear Edema Caused by Xylene; assay: Inhibition of Ear Edema Caused by Xylene (II), Table 9; assay type: in vivo, CF-1 mice; conditions: i.p., 2 h
Description: Inhibition of Ear Edema Caused by Xylene (II)
CF-1 mice, 25-30 g body weight, six animals per group, were used. The requisite amount of the test compound was dissolved is dimethyl sulfoxide or 0.5% methylcellulose and 100 μL of the solution was injected intraperitoneally 30 minutes prior to the administration the irritant. The irritant xylene was applied to the surface of the ear, 20 μL to the upper surface and 20 μL to the lower surface, After two hours, the thickness of the ear was measured to 0.01 mm by a micrometer with the loose drag positioned at the lateral-most edge of the mid-point of the pinna. Data were calculated as the percent inhibition by the test compound of increased ear thickness compared to control animals receiving only the irritant.

[5] = system: Ear Edema Caused by Oxazolone; assay: Inhibition of Ear Edema Caused by Oxazolone (II), Table 10; assay type: in vivo, CF-1 mice; conditions: i.p., 24 h
Description: Inhibition of Ear Edema Caused by Oxazolone (II)
CF-1 mice, 25-30 g body weight, five to six animals per group were used. The mice were sensitized to the irritant two weeks prior to the test by dribbling 100 μL of a 3% solution of oxazolone in acetone onto the abdominal skin of the animal. Test compounds were administered intraperitoneally as follows. […] The irritant, 3% oxazolone in acetone, was added to the surface of the ear, 5 μL added to the upper surface and 5 μL added to the lower surface. After twenty four hours, the thickness of the ear was measured to 0.01 mm by a micrometer with loose drag, positioned at the lateral-most edge of the mid-point of the pinna. Data were calculated as the inhibition of increased ear thickness compared to control animals' receiving only the irritant.

[6] = system: Reverse Passive Artus Reaction; assay: Reverse Passive Artus Reaction (II), Table 11; assay type: in vivo, Male CD rats; conditions: inhibition of blueing; i.p., 100 mg/kg
Description: Reverse Passive Artus Reaction (II) Male CD rats weighing between 200 and 250 g were used. […] The animals were anesthetized inhalationally with isoflurane and then injected through the penile vein with 1 mL of a solution of 2.5 mg of Evan's blue dye and 5.0 mg of human serum albumin in 1 mL of saline. This treatment was followed immediately by intracutaneous injections of 0.03 mL of anti-human albumin diluted to contain 3.65 mg of antibody at 3 sites along the midline back. Anesthesia was terminated and after three hours, the animals were sacrificed. The skin was removed and the blue stained areas cut out. The skin patches were soaked overnight in stoppered tubes containing 1 mL of 1 N potassium hydroxide at 37° C. Then 9 mL of a mixture of five parts of a 0.6 N phosphoric acid and thirteen parts of acetone were added to the tubes. The tube contents were agitated and centrifuged, and the absorbance measured at 620 nm. The data were calculated as inhibition of blueing by test compound compared to control animals receiving only antigen and antibody.

NCCCC[C@H](N)C(=O)O [L-Lysine]
% Inhibition Intraperitoneal [1]: 14%

CCCC[C@H](NC(=O)OCC1c2ccccc2-c2ccccc21)C(=O)O [NPC 15667, N-[9H-(Fluorenyl-9-ylmethoxy)carbonyl]-L-norleucine]
% Inhibition Intraperitoneal ([2]; 10 mg/kg): -80%
% Inhibition Intraperitoneal ([2]; 30 mg/kg): 72%
% Inhibition Intraperitoneal ([3]; 10 mg/kg): 7%
% Inhibition Intraperitoneal ([3]; 30 mg/kg): 57%
% Inhibition Intraperitoneal ([3]; 100 mg/kg): 65%
% Inhibition ([4]; 10 mg/kg): 22%
% Inhibition ([4]; 30 mg/kg): 57%
% Inhibition ([4]; 100 mg/kg): 80%
% Inhibition Intraperitoneal ([5]; 10 mg/kg): 13%
% Inhibition Intraperitoneal ([5]; 30 mg/kg): 15%
% Inhibition Intraperitoneal ([5]; 100 mg/kg): 71%
% Inhibition Intraperitoneal [6]: 63%

Cc1ccc2c(c1)C(COC(=O)N[C@@H](CC(C)C)C(=O)O)c1cc(C)ccc1-2 [NPC 15669, N-{[9H-(2,7-Dimethylfluoren-9-yl)methoxy]-carbonyl}-L-leucine]
% Inhibition Intraperitoneal ([2]; 10 mg/kg): 43%
% Inhibition Intraperitoneal ([2]; 30 mg/kg): 27%
% Inhibition Intraperitoneal ([2]; 100 mg/kg): 133%
% Inhibition Intraperitoneal ([3]; 10 mg/kg): 12%
% Inhibition Intraperitoneal ([3]; 30 mg/kg): 22%
% Inhibition Intraperitoneal ([3]; 100 mg/kg): 60%
% Inhibition ([4]; 10 mg/kg): 12%
% Inhibition ([4]; 30 mg/kg): 22%
% Inhibition ([4]; 100 mg/kg): 60%
% Inhibition Intraperitoneal ([5]; 10 mg/kg): -40%
% Inhibition Intraperitoneal ([5]; 30 mg/kg): 84%
% Inhibition Intraperitoneal ([5]; 100 mg/kg): 84%
% Inhibition Intraperitoneal [6]: 60%

Cc1ccc2c(c1)C(CCC(=O)N[C@@H](CC(C)C)C(=O)O)c1ccccc1-2 (stereo partly drawn) [NPC 15671, N-{9H-[3-(2-Methylfluoren-9-yl)propionyl]}-L-leucine]
% Inhibition Intraperitoneal ([2]; 10 mg/kg): 41%
% Inhibition Intraperitoneal ([2]; 30 mg/kg): 31%
% Inhibition Intraperitoneal ([2]; 100 mg/kg): 66%
% Inhibition Intraperitoneal ([3]; 10 mg/kg): 40%
% Inhibition Intraperitoneal ([3]; 30 mg/kg): 19%
% Inhibition Intraperitoneal ([3]; 100 mg/kg): 56%
% Inhibition ([4]; 10 mg/kg): 6%
% Inhibition ([4]; 30 mg/kg): 10%
% Inhibition ([4]; 100 mg/kg): 18%
% Inhibition Intraperitoneal ([5]; 10 mg/kg): 5%
% Inhibition Intraperitoneal ([5]; 30 mg/kg): 20%
% Inhibition Intraperitoneal ([5]; 100 mg/kg): 69%
% Inhibition Intraperitoneal [6]: 13%

COCc1cccc2c1C(COC(=O)N[C@@H](CC(C)C)C(=O)O)c1ccccc1-2 (stereo partly drawn) [NPC 15673, N-{[9H-(1-Methoxymethylfluoren-9-yl)methoxy]carbonyl}-L-leucine]
% Inhibition Intraperitoneal ([2]; 10 mg/kg): 0%
% Inhibition Intraperitoneal ([2]; 30 mg/kg): 33%
% Inhibition Intraperitoneal ([2]; 100 mg/kg): 60%
% Inhibition Intraperitoneal ([3]; 10 mg/kg): 24%
% Inhibition Intraperitoneal ([3]; 30 mg/kg): 27%
% Inhibition Intraperitoneal ([3]; 100 mg/kg): 58%
% Inhibition ([4]; 10 mg/kg): 20%
% Inhibition ([4]; 30 mg/kg): 26%
% Inhibition ([4]; 100 mg/kg): 29%
% Inhibition Intraperitoneal ([5]; 10 mg/kg): 0%
% Inhibition Intraperitoneal ([5]; 30 mg/kg): 12%
% Inhibition Intraperitoneal ([5]; 100 mg/kg): 18%
% Inhibition Intraperitoneal [6]: 46%

CC(C)(C)C[C@H](NC(=O)OCC1c2ccccc2-c2ccccc21)C(=O)O [NPC 15676, N-[(9H-Fluoren-9-ylmethoxy)carbonyl]-L--neopentylglycine quarter hydrate]
% Inhibition Intraperitoneal ([2]; 10 mg/kg): 0%
% Inhibition Intraperitoneal ([2]; 30 mg/kg): 20%
% Inhibition Intraperitoneal ([2]; 100 mg/kg): 16%
% Inhibition Intraperitoneal ([3]; 10 mg/kg): 20%
% Inhibition Intraperitoneal ([3]; 30 mg/kg): 44%
% Inhibition Intraperitoneal ([3]; 100 mg/kg): 79%
% Inhibition ([4]; 10 mg/kg): 26%
% Inhibition ([4]; 30 mg/kg): 12%
% Inhibition ([4]; 100 mg/kg): 44%
% Inhibition Intraperitoneal ([5]; 10 mg/kg): 0%
% Inhibition Intraperitoneal ([5]; 30 mg/kg): 4%
% Inhibition Intraperitoneal ([5]; 100 mg/kg): 50%
% Inhibition Intraperitoneal [6]: 82%

CC(C)(C)[C@H](NC(=O)CCC1c2ccccc2-c2ccccc21)C(=O)O [NPC 15685, N-[3-(9H-Fluoren-9-yl)propionyl]-L-tert-leucine, quarter hydrate]
% Inhibition Intraperitoneal ([2]; 10 mg/kg): 0%
% Inhibition Intraperitoneal ([2]; 30 mg/kg): 16%
% Inhibition Intraperitoneal ([2]; 100 mg/kg): 67%
% Inhibition Intraperitoneal ([3]; 10 mg/kg): 44%
% Inhibition Intraperitoneal ([3]; 30 mg/kg): 61%
% Inhibition Intraperitoneal ([3]; 100 mg/kg): 69%
% Inhibition ([4]; 10 mg/kg): 5%
% Inhibition ([4]; 30 mg/kg): 23%
% Inhibition ([4]; 100 mg/kg): 18%
% Inhibition Intraperitoneal ([5]; 10 mg/kg): 0%
% Inhibition Intraperitoneal ([5]; 30 mg/kg): 30%
% Inhibition Intraperitoneal ([5]; 100 mg/kg): 30%
% Inhibition Intraperitoneal [6]: 42%

Cc1cccc2c1C(CCC(=O)N[C@H](C(=O)O)C(C)(C)C)c1ccccc1-2 (stereo partly drawn) [NPC 15885, N-{9H-[3-(1-Methylfluoren-9-yl)propionyl]}-L-tert-leucine, quarter hydrate]
% Inhibition Intraperitoneal ([2]; 10 mg/kg): 70%
% Inhibition Intraperitoneal ([2]; 30 mg/kg): 77%
% Inhibition Intraperitoneal ([2]; 100 mg/kg): 80%
% Inhibition Intraperitoneal ([3]; 10 mg/kg): 52%
% Inhibition Intraperitoneal ([3]; 30 mg/kg): 71%
% Inhibition Intraperitoneal ([3]; 100 mg/kg): 79%
% Inhibition ([4]; 10 mg/kg): 39%
% Inhibition ([4]; 30 mg/kg): 49%
% Inhibition ([4]; 100 mg/kg): 48%
% Inhibition Intraperitoneal ([5]; 10 mg/kg): 1%
% Inhibition Intraperitoneal ([5]; 30 mg/kg): 8%
% Inhibition Intraperitoneal ([5]; 100 mg/kg): 36%
% Inhibition Intraperitoneal [6]: 49%

CC(C)(SCc1ccccc1)[C@@H](NC(=O)OCC1c2ccccc2-c2ccccc21)C(=O)O [NPC 15953, S-Benzyl-β,β-dimethyl-N-[9H-(fluoren-9-ylmethoxy)carbonyl]-D-cystein]
% Inhibition Intraperitoneal ([2]; 10 mg/kg): 64%
% Inhibition Intraperitoneal ([2]; 30 mg/kg): 87%
% Inhibition Intraperitoneal ([2]; 100 mg/kg): 95%
% Inhibition Intraperitoneal ([3]; 10 mg/kg): 46%
% Inhibition Intraperitoneal ([3]; 30 mg/kg): 66%
% Inhibition Intraperitoneal ([3]; 100 mg/kg): 60%
% Inhibition ([4]; 10 mg/kg): 46%
% Inhibition ([4]; 30 mg/kg): 66%
% Inhibition ([4]; 100 mg/kg): 60%
% Inhibition Intraperitoneal ([5]; 10 mg/kg): 0%
% Inhibition Intraperitoneal ([5]; 30 mg/kg): 28%
% Inhibition Intraperitoneal ([5]; 100 mg/kg): 79%
% Inhibition Intraperitoneal [6]: 68%
